# Target: human NaV 1.8 (Homo sapiens, UniProt Q9Y5Y9)
# Test: E-VIPR assay detecting and measuring NaV inhibition properties
# Type: cell-based
# Details: HEK cells expressing truncated human NaV 1.8; no human serum; read-out: IC50 in the E-VIPR Assay
# Summary of the method: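 Membrane potential was followed by coumarin/oxonol FRET during electrical field stimulation of matrigel-seeded HEK cells carrying truncated human NaV1.8 plus KIR2.1. Dosing used 11 points, 3-fold steps, top 300 nM final, 0.625% DMSO, with or without 25% human serum.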
# Chain of human NaV 1.8 (Q9Y5Y9 126-399 limits assumed): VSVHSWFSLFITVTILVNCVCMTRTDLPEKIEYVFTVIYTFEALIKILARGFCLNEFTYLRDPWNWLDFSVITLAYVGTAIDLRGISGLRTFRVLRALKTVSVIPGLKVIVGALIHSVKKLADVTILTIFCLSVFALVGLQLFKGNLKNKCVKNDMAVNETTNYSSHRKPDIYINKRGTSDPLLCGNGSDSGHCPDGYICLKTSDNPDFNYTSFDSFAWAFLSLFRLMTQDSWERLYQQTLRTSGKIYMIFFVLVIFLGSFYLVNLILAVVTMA
# Chain of human NaV 1.8 (Q9Y5Y9 660-890 limits assumed): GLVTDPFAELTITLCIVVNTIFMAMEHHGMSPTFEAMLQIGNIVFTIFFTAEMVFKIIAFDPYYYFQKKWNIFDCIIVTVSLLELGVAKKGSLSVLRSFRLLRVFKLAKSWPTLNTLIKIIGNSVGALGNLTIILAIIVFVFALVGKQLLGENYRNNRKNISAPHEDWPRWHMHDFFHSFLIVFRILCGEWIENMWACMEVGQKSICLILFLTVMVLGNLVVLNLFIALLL
# Chain of human NaV 1.8 (Q9Y5Y9 1148-1722 limits assumed): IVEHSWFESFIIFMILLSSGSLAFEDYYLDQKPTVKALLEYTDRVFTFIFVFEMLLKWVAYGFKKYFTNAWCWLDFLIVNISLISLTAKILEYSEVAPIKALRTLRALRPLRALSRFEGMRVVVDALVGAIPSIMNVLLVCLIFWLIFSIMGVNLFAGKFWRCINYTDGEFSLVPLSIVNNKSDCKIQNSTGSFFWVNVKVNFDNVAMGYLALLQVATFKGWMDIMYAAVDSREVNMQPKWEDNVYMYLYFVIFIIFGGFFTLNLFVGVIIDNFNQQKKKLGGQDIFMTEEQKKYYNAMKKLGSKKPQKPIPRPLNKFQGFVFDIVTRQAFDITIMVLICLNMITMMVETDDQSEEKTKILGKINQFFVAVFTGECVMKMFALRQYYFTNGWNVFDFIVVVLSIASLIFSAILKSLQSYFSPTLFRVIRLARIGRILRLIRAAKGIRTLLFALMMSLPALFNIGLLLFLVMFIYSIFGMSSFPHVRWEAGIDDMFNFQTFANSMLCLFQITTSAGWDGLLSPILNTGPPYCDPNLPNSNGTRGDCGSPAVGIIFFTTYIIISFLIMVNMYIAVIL
row,Structure (SMILES),IC50 [nM]
1,"COCC(C)(N)c1cc(NC(=O)[C@@H]2O[C@@](C)(C(F)(F)F)[C@@H](C)[C@H]2c2ccc(F)c(F)c2OC)c(F)cn1 (single isomer, unassigned) [Compound 354, rel-(2R*,3S*,4S*,5R*)-N-(2-(2-amino-1-methoxypropan-2-yl)-5-fluoropyridin-4-yl)-3-(3,4-difluoro-2-methoxyphenyl)-4,5-dimethyl-5-(trifluoromethyl)-tetrahydrofuran-2-carboxamide]",< 10
2,"COc1c([C@H]2[C@H](C(=O)Nc3cc(C(N)C(C)(C)OC)ncc3F)O[C@@](C)(C(F)(F)F)[C@H]2C)ccc(F)c1F (single isomer, unassigned) [Compound 356, rel-(2R*,3S*,4S*,5R*)-N-(2-(1-amino-2-methoxy-2-methylpropyl)-5-fluoropyridin-4-yl)-3-(3,4-difluoro-2-methoxyphenyl)-4,5-dimethyl-5-(trifluoromethyl)-tetrahydrofuran-2-carboxamide]",10 to 100
3,"COc1c([C@H]2[C@H](C(=O)Nc3ccnc(C(C)(N)CO)c3)O[C@@](C)(C(F)(F)F)[C@H]2C)ccc(F)c1F (single isomer, unassigned) [Compound 358, rel-(2R*,3S*,4S*,5R*)-N-(2-(2-amino-1-hydroxypropan-2-yl)pyridin-4-yl)-3-(3,4-difluoro-2-methoxyphenyl)-4,5-dimethyl-5-(trifluoromethyl)-tetrahydrofuran-2-carboxamide]",< 10
4,"COc1c([C@H]2[C@H](C(=O)Nc3cc(C(C)(N)CO)ncc3F)O[C@@](C)(C(F)(F)F)[C@H]2C)ccc(F)c1F (single isomer, unassigned) [Compound 360]",< 10
5,"COc1c([C@H]2[C@H](C(=O)Nc3ccnc(C4COCCN4C)c3)O[C@@](C)(C(F)(F)F)[C@H]2C)ccc(F)c1F (single isomer, unassigned) [Compound 364, rel-(2R*,3S*,4S*,5R*)-3-(3,4-difluoro-2-methoxyphenyl)-4,5-dimethyl-N-(2-(4-methylmorpholin-3-yl)pyridin-4-yl)-5-(trifluoromethyl)tetrahydrofuran-2-carboxamide]",< 10
6,"COc1c([C@H]2[C@H](C(=O)Nc3cc(C4CN(C)CCO4)ncc3F)O[C@@](C)(C(F)(F)F)[C@H]2C)ccc(F)c1F (single isomer, unassigned) [Compound 366, rel-(2R*,3S*,4S*,5R*)-3-(3,4-difluoro-2-methoxyphenyl)-N-(5-fluoro-2-(4-methylmorpholin-2-yl)pyridin-4-yl)-4,5-dimethyl-5-(trifluoromethyl)tetrahydrofuran-2-carboxamide]",< 10
7,"COc1c([C@H]2[C@H](C(=O)Nc3cc(C4CN(C)CCO4)ncc3F)O[C@@](C)(C(F)(F)F)[C@H]2C)ccc(F)c1F (single isomer, unassigned) [Compound 367, rel-(2R*,3S*,4S*,5R*)-3-(3,4-difluoro-2-methoxyphenyl)-N-(5-fluoro-2-(4-methylmorpholin-2-yl)pyridin-4-yl)-4,5-dimethyl-5-(trifluoromethyl)tetrahydrofuran-2-carboxamide]",10 to 100
8,"COc1c([C@H]2[C@H](C(=O)Nc3ccnc(C(CO)N(C)C)c3)O[C@@](C)(C(F)(F)F)[C@H]2C)ccc(F)c1F (single isomer, unassigned) [Compound 368]",< 10
9,"COc1c([C@H]2[C@H](C(=O)Nc3cc(C(O)CN(C)C)ncc3F)O[C@@](C)(C(F)(F)F)[C@H]2C)ccc(F)c1F (single isomer, unassigned) [Compound 370, rel-(2R*,3S*,4S*,5R*)-3-(3,4-difluoro-2-methoxyphenyl)-N-(2-(2-(dimethylamino)-1-hydroxyethyl)-5-fluoropyridin-4-yl)-4,5-dimethyl-5-(trifluoromethyl)tetrahydrofuran-2-carboxamide]",< 10
10,"COc1c([C@H]2[C@H](C(=O)Nc3cc(C(O)CN4CCOCC4)ncc3F)O[C@@](C)(C(F)(F)F)[C@H]2C)ccc(F)c1F (single isomer, unassigned) [Compound 371, rel-(2R*,3S*,4S*,5R*)-3-(3,4-difluoro-2-methoxyphenyl)-N-(5-fluoro-2-(1-hydroxy-2-morpholinoethyl)pyridin-4-yl)-4,5-dimethyl-5-(trifluoromethyl)tetrahydrofuran-2-carboxamide]",10 to 100
11,"COc1c([C@H]2[C@H](C(=O)Nc3cc(C(O)CN(C)C)ncc3F)O[C@@](C)(C(F)(F)F)[C@H]2C)ccc(F)c1F (single isomer, unassigned) [Compound 377]",< 10
12,"COCC(c1ccc(NC(=O)[C@@H]2O[C@@](C)(C(F)(F)F)[C@@H](C)[C@H]2c2ccc(F)c(F)c2OC)cn1)N1CCC1 (single isomer, unassigned) [Compound 407, rel-(2R*,3S*,4S*,5R*)-N-(6-(1-(azetidin-1-yl)-2-methoxyethyl)-pyridin-3-yl)-3-(3,4-difluoro-2-methoxyphenyl)-4,5-dimethyl-5-(trifluoromethyl)-tetrahydrofuran-2-carboxamide]",≥ 1000
13,"COc1c([C@H]2[C@H](C(=O)Nc3cnc4c(c3)OCC4O)O[C@@](C)(C(F)(F)F)[C@H]2C)ccc(F)c1F (single isomer, unassigned) [Compound 408, rel-(2R*,3S*,4S*,5R*)-3-(3,4-difluoro-2-methoxyphenyl)-N-(3-hydroxy-2,3-dihydrofuro[3,2-b]pyridin-6-yl)-4,5-dimethyl-5-(trifluoromethyl)-tetrahydrofuran-2-carboxamide]",10 to 100
14,"COc1c([C@H]2[C@H](C(=O)Nc3cnc4c(c3)OCC4O)O[C@@](C)(C(F)(F)F)[C@H]2C)ccc(F)c1F (single isomer, unassigned) [Compound 409, rel-(2R*,3S*,4S*,5R*)-3-(3,4-difluoro-2-methoxyphenyl)-N-(3-hydroxy-2,3-dihydrofuro[3,2-b]pyridin-6-yl)-4,5-dimethyl-5-(trifluoromethyl)-tetrahydrofuran-2-carboxamide]",100 to 1000
15,"CNC(COC)c1cc(NC(=O)[C@@H]2O[C@@](C)(C(F)(F)F)[C@@H](C)[C@H]2c2ccc(F)c(F)c2OC)ccn1 (single isomer, unassigned) [Compound 412, rel-(2R*,3S*,4S*,5R*)-3-(3,4-difluoro-2-methoxyphenyl)-N-(2-(2-methoxy-1-(methylamino)ethyl)-pyridin-4-yl)-4,5-dimethyl-5-(trifluoromethyl)-tetrahydrofuran-2-carboxamide]",< 10
16,"CNC(COC)c1ccc(NC(=O)[C@@H]2O[C@@](C)(C(F)(F)F)[C@@H](C)[C@H]2c2ccc(F)c(F)c2OC)cn1 (single isomer, unassigned) [Compound 414, rel-(2R*,3S*,4S*,5R*)-3-(3,4-difluoro-2-methoxyphenyl)-N-(6-(2-methoxy-1-(methylamino)ethyl)-pyridin-3-yl)-4,5-dimethyl-5-(trifluoromethyl)-tetrahydrofuran-2-carboxamide]",100 to 1000
17,"COCCNC(COC)c1ccc(NC(=O)[C@@H]2O[C@@](C)(C(F)(F)F)[C@@H](C)[C@H]2c2ccc(F)c(F)c2OC)cn1 (single isomer, unassigned) [Compound 417, rel-(2R*,3S*,4S*,5R*)-3-(3,4-difluoro-2-methoxyphenyl)-N-(6-(2-methoxy-1-((2-methoxyethyl)amino)-ethyl)pyridin-3-yl)-4,5-dimethyl-5-(trifluoromethyl)-tetrahydrofuran-2-carboxamide]",10 to 100
18,"CNC(COC)c1cc(NC(=O)[C@@H]2O[C@@](C)(C(F)(F)F)[C@@H](C)[C@H]2c2ccc(F)c(F)c2OC)c(F)cn1 (single isomer, unassigned) [Compound 418, rel-(2R*,3S*,4S*,5R*)-3-(3,4-difluoro-2-methoxyphenyl)-N-(5-fluoro-2-(2-methoxy-1-(methylamino)ethyl)-pyridin-4-yl)-4,5-dimethyl-5-(trifluoromethyl)-tetrahydrofuran-2-carboxamide]",< 10
19,"COCC(NC(C)C)c1ccc(NC(=O)[C@@H]2O[C@@](C)(C(F)(F)F)[C@@H](C)[C@H]2c2ccc(F)c(F)c2OC)cn1 (single isomer, unassigned) [Compound 420, rel-(2R*,3S*,4S*,5R*)-3-(3,4-difluoro-2-methoxyphenyl)-N-(6-(1-(isopropylamino)-2-methoxyethyl)pyridin-3-yl)-4,5-dimethyl-5-(trifluoromethyl)-tetrahydrofuran-2-carboxamide]",≥ 1000
20,"COCC(NC(C)C)c1ccc(NC(=O)[C@@H]2O[C@@](C)(C(F)(F)F)[C@@H](C)[C@H]2c2ccc(F)c(F)c2OC)cn1 (single isomer, unassigned) [Compound 421, rel-(2R*,3S*,4S*,5R*)-3-(3,4-difluoro-2-methoxyphenyl)-N-(6-(1-(isopropylamino)-2-methoxyethyl)pyridin-3-yl)-4,5-dimethyl-5-(trifluoromethyl)-tetrahydrofuran-2-carboxamide]",100 to 1000
21,"COCC(N)c1cc(NC(=O)[C@@H]2O[C@@](C)(C(F)(F)F)[C@@H](C)[C@H]2c2ccc(F)c(F)c2OC)c(F)cn1 (single isomer, unassigned) [Compound 422, rel-(2R*,3S*,4S*,5R*)-N-(2-(1-amino-2-methoxyethyl)-5-fluoropyridin-4-yl)-3-(3,4-difluoro-2-methoxyphenyl)-4,5-dimethyl-5-(trifluoromethyl)-tetrahydrofuran-2-carboxamide]",10 to 100
22,"COCC(N)c1cc(NC(=O)[C@@H]2O[C@@](C)(C(F)(F)F)[C@@H](C)[C@H]2c2ccc(F)c(F)c2OC)c(F)cn1 (single isomer, unassigned) [Compound 423, rel-(2R*,3S*,4S*,5R*)-N-(2-(1-amino-2-methoxyethyl)-5-fluoropyridin-4-yl)-3-(3,4-difluoro-2-methoxyphenyl)-4,5-dimethyl-5-(trifluoromethyl)-tetrahydrofuran-2-carboxamide]",< 10

# — patent US20240368135A1 (VERTEX PHARMACEUTICALS INCORPORATED, priority 2021, published 2024)
